Reference: patent US20250314639A1, “SYSTEMS AND METHODS FOR HIGH THROUGHPUT SINGLE MOLECULE TRACKING IN LIVING CELLS” (EIKON THERAPEUTICS, INC., priority 2022, published 2025)
Entries after “also recorded” stand apart in the source; their conditions may differ.

Assays:
ER [1] = target: T1, ER (Homo sapiens, UniProt P03372); test: htSMT change in fbound of Halo-ER in U2OS cells; format: cell-based; conditions: for change in fbound of ER: versus DMSO, bioactive screen at 1 μM compound
T1 construct: expressed in transfected cells; host or cells: U2OS
T1 sequence (P03372 1-595): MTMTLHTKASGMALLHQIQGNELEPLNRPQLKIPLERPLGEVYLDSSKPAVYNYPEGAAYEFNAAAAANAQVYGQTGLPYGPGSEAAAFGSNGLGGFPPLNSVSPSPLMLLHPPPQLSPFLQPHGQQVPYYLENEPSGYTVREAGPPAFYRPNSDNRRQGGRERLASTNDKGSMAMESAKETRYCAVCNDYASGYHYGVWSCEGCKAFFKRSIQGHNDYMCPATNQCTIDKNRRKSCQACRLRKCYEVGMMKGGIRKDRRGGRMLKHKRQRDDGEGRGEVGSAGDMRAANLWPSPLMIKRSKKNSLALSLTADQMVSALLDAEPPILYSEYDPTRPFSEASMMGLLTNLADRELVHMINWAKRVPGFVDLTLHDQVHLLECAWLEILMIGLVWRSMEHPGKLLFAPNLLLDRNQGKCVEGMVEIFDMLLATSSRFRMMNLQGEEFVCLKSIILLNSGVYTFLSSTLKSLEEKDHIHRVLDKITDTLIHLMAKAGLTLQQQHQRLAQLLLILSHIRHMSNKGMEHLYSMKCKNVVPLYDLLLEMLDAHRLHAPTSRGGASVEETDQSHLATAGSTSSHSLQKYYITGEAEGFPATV

GR = target: T2, GR (Homo sapiens, UniProt P04150); test: htSMT fbound of GR-HaloTag in U2OS cells; format: cell-based; conditions: 1 μM antagonist, singly or co-administered with the cognate agonist
T2 construct: Because U2OS cells express GR endogenously; endogenous in cells; host or cells: U2OS (CRISPR/Cas9 knock-in at the endogenous locus)
T2 sequence (P04150 1-777): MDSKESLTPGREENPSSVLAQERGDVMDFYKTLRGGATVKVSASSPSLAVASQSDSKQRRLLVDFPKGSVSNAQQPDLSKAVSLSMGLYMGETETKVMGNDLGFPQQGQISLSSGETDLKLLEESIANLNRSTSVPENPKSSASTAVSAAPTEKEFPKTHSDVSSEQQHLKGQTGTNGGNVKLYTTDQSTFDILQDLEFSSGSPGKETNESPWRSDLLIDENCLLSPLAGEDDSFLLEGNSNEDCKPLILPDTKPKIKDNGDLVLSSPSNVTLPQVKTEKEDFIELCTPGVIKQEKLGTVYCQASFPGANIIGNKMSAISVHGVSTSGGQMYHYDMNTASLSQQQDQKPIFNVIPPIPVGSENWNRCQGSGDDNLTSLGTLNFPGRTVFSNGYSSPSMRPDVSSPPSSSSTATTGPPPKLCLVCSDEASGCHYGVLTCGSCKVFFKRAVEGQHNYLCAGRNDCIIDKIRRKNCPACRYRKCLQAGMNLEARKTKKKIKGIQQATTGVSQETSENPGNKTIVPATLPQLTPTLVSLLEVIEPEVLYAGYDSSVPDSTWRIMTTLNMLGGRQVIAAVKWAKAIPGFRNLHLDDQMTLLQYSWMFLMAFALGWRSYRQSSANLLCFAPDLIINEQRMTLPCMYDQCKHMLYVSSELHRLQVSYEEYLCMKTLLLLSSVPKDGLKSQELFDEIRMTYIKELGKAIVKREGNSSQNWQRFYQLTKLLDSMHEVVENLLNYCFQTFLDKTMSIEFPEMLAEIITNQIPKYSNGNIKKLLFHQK
Excerpt: Where appropriate, compounds were serially diluted in an Echo Qualified 384-Well Low Dead Volume Source Microplate (0018544, Beckman Coulter) to generate dose-titration source material.

AR = AR (Homo sapiens, UniProt P10275)
Sequence of AR (P10275 whole entry): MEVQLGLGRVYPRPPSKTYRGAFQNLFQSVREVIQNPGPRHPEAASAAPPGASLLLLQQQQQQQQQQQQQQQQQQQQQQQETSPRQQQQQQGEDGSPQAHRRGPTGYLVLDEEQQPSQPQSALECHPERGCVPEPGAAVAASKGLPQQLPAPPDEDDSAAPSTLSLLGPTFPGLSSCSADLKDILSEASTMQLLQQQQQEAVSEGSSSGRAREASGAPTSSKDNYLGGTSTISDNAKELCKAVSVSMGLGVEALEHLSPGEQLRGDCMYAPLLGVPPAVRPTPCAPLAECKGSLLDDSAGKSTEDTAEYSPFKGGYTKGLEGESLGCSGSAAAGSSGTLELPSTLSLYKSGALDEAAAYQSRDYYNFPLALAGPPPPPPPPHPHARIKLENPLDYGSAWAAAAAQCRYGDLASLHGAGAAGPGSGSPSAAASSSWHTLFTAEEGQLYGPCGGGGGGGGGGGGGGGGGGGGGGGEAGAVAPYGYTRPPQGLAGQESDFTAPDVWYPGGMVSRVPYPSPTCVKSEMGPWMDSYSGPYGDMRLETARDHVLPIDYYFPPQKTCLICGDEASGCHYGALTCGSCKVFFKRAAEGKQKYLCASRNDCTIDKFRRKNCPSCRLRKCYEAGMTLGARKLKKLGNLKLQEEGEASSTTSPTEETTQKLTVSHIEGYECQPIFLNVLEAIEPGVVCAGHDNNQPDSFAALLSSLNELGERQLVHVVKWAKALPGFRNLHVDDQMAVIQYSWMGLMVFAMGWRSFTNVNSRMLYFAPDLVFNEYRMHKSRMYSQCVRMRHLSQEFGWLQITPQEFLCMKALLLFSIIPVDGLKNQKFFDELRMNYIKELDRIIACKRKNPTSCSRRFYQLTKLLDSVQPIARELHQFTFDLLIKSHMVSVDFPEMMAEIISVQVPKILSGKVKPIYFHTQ

ER [2] = target: T1, ER; test: kinetic SMT (kSMT) of ER after compound addition; format: cell-based; conditions: for t1/2 of increase in fbound: 100 nM compound, single exponential fit; for time at which overall effect on ER movement reaches a plateau: FIG. 16C
ER [3] = target: T1, ER; test: residence time imaging of ER-Halo cells (track length survival); format: cell-based; conditions: 100 nM HSP90 inhibition, versus DMSO, FIG. 16E
ER [4] = target: T1, ER; test: Western blot of ER after 24 hours compound treatment; format: cell-based; conditions: 100 nM fulvestrant, MCF7, T47d, Halo-ER U2OS
Experimental: Cells were grown in the same conditions as described previously. […] Cells are lysed in 200 μL 1× Cell Lysis Buffer (catalogue number 9803, Cell Signaling). Protein lysate concentration is then determined using BCA protein assay kit (Catalog number 23225, Pierce™ BCA Protein Assay Kit) following manufacturer instructions. Capillary Western Immunoassay were performed using Jess Protein Simple following manufacturer's instruction (protein simple, USA). Levels of αER (1:100, RM-9101) were normalized to loading control β-tubulin (1:100, NC0244815 LI-COR 92642213, Thermo Fisher). The peaks were analyzed with the Compass software (Protein Simple, USA).

Row | Molecule | change in fbound of ER (ER [1]) | t1/2 of increase in fbound (ER [2]) | time at which overall effect on ER movement reaches a plateau (ER [2]) | decrease in the total number of long binding events (ER [3]) | further results
1 | 4-hydroxytamoxifen | significantly increased fbound |  |  |  | maximal increase in fbound of ER (ER [1]; compared with the SERDs fulvestrant and GDC-0927, FIG. 14D): lower maximal increases in fbound
2 | CN(C)c1ccc(C(c2ccc(N(C)C)cc2)c2cc([N+](=O)[O-])ccc2Cl)cc1 [AL082D06] |  |  |  |  | change in chromatin binding (fbound) of GR (GR): decrease in chromatin binding
3 | CC(O)c1cc(C(=O)N[C@@H](C)Cn2ccc(-c3ccc(C#N)c(Cl)c3)n2)[nH]n1 (some centres unmarked) [Darolutamide] |  |  |  |  | change in chromatin binding (fbound) of AR (AR): decrease in chromatin binding
4 | COc1cccc(-c2cc(F)ccc2[C@H]2Cc3nc(N)nc(C)c3C(=O)N2)n1 [HSP990] | an increase in fbound | 17.5 min | plateau after an hour | two | 
5 | C[C@]12CC[C@@H]3c4ccc(O)cc4C[C@@H](CCCCCCCCC[S+]([O-])CCCC(F)(F)C(F)(F)F)[C@H]3[C@@H]1CC[C@@H]2O (some centres unmarked) [fulvestrant] | caused an increase in fbound; also recorded: significantly increased fbound |  |  |  | ER degradation (western blot) (ER [4]): leads to the degradation of ER
6 | CC(C)c1cc(-c2n[nH]c(=O)n2-c2ccc3c(ccn3C)c2)c(O)cc1O [ganetespib] | an increase in fbound | 19.3 min | plateau after an hour | four | 
